Test results from ChEMBL document CHEMBL3885881, “DrugMatrix”.

Species on record: Rattus norvegicus
Experiment: DrugMatrix - Regimen: Daily Repeat
Type: toxicity, organism-based, Sprague-Dawley
Parameters: regimen Daily Repeat, gender Male, age 6-8 weeks
Conditions: in vivo, po, route oral GAVAGE, vehicle 100 % SALINE; for ABSOLUTE BASOPHIL / ABSOLUTE EOSINOPHIL / ABSOLUTE LYMPHOCYTE / ABSOLUTE MONOCYTE / ABSOLUTE SEGMENTED NEUTROPHIL / BASOPHIL / EOSINOPHIL / ERYTHROCYTE COUNT / HEMATOCRIT / HEMOGLOBIN / LEUKOCYTE COUNT / LYMPHOCYTE / MEAN CORPUSCULAR HEMOGLOBIN / MEAN CORPUSCULAR HEMOGLOBIN CONCENTRATION / MEAN CORPUSCULAR VOLUME / MONOCYTE / NEUTROPHIL / NUCLEATED RED BLOOD CELLS / PLATELET COUNT: tissue Blood; for ALANINE AMINOTRANSFERASE / ALBUMIN / ALKALINE PHOSPHATASE / ASPARTATE AMINOTRANSFERASE / BLOOD UREA NITROGEN / CARBON DIOXIDE / CHLORIDE / CHOLESTEROL / CREATINE PHOSPHOKINASE / CREATININE / GLUCOSE / LACTATE DEHYDROGENASE / LIPASE / PHOSPHORUS / POTASSIUM / SODIUM / TOTAL BILIRUBIN / TOTAL PROTEIN / URIC ACID: tissue Plasma
[1] = 3000 mg/kg, […], dose level Low, time 7 day
[2] = 6000 mg/kg, 72 h, dose level High, time 3 day
[3] = 6000 mg/kg, […], dose level High, time 7 day

## CCO [ALCOHOL]
[1]
  ABSOLUTE BASOPHIL: 0 CELLS/uL
  ABSOLUTE EOSINOPHIL: 0 CELLS/uL
  ABSOLUTE LYMPHOCYTE: 9669 CELLS/uL
  ABSOLUTE MONOCYTE: 317.33 CELLS/uL
  ABSOLUTE SEGMENTED NEUTROPHIL: 1063.67 CELLS/uL
  BASOPHIL: 0%
  EOSINOPHIL: 0%
  ERYTHROCYTE COUNT: 5.39 x10E6/uL
  HEMATOCRIT: 34.88%
  HEMOGLOBIN: 13.85 G/DL
  LEUKOCYTE COUNT: 11.05 x10E3/uL
  LYMPHOCYTE: 87%
  MEAN CORPUSCULAR HEMOGLOBIN: 25.73 pg
  MEAN CORPUSCULAR HEMOGLOBIN CONCENTRATION: 39.75 G/DL
  MEAN CORPUSCULAR VOLUME: 64.77 fL
  MONOCYTE: 2.83%
  NEUTROPHIL: 10.17%
  NUCLEATED RED BLOOD CELLS: 0 /100WBC
  PLATELET COUNT: 1110 x10E3/uL
  ALANINE AMINOTRANSFERASE: 51.67 u/L
  ALBUMIN: 4.5 G/DL
  ALKALINE PHOSPHATASE: 281.33 u/L
  ASPARTATE AMINOTRANSFERASE: 82.67 u/L
  BLOOD UREA NITROGEN: 15 mg/dL
  CARBON DIOXIDE: 31 mmol/L
  CHLORIDE: 98.33 MEQ/L
  CHOLESTEROL: 69.83 mg/dL
  CREATINE PHOSPHOKINASE: 250 u/L
  CREATININE: 0.19 mg/dL
  GLUCOSE: 135.67 mg/dL
  LACTATE DEHYDROGENASE: 123.5 u/L
  LIPASE: 10.17 u/L
  PHOSPHORUS: 10.85 mg/dL
  POTASSIUM: 5.95 MEQ/L
  SODIUM: 143.15 MEQ/L
  TOTAL BILIRUBIN: 0.22 mg/dL
  TOTAL PROTEIN: 5.93 G/DL
  URIC ACID: 0.68 mg/dL
[2]
  ABSOLUTE BASOPHIL: 0 CELLS/uL
  ABSOLUTE EOSINOPHIL: 0 CELLS/uL
  ABSOLUTE LYMPHOCYTE: 11300.5 CELLS/uL
  ABSOLUTE MONOCYTE: 91.33 CELLS/uL
  ABSOLUTE SEGMENTED NEUTROPHIL: 1124.83 CELLS/uL
  BASOPHIL: 0%
  EOSINOPHIL: 0%
  ERYTHROCYTE COUNT: 5.6 x10E6/uL
  HEMATOCRIT: 35.9%
  HEMOGLOBIN: 13 G/DL
  LEUKOCYTE COUNT: 12.52 x10E3/uL
  LYMPHOCYTE: 90.17%
  MEAN CORPUSCULAR HEMOGLOBIN: 23.25 pg
  MEAN CORPUSCULAR HEMOGLOBIN CONCENTRATION: 36.23 G/DL
  MEAN CORPUSCULAR VOLUME: 64.17 fL
  MONOCYTE: 0.67%
  NEUTROPHIL: 9.17%
  NUCLEATED RED BLOOD CELLS: 0 /100WBC
  PLATELET COUNT: 1089.17 x10E3/uL
  ALANINE AMINOTRANSFERASE: 60.5 u/L
  ALBUMIN: 4.18 G/DL
  ALKALINE PHOSPHATASE: 281 u/L
  ASPARTATE AMINOTRANSFERASE: 86.33 u/L
  BLOOD UREA NITROGEN: 12.33 mg/dL
  CARBON DIOXIDE: 28.33 mmol/L
  CHLORIDE: 101.33 MEQ/L
  CHOLESTEROL: 80.33 mg/dL
  CREATINE PHOSPHOKINASE: 216.67 u/L
  CREATININE: 0.46 mg/dL
  GLUCOSE: 142.83 mg/dL
  LACTATE DEHYDROGENASE: 151.83 u/L
  LIPASE: 9.83 u/L
  PHOSPHORUS: 11.08 mg/dL
  POTASSIUM: 5.96 MEQ/L
  SODIUM: 146.62 MEQ/L
  TOTAL BILIRUBIN: 0.17 mg/dL
  TOTAL PROTEIN: 6.02 G/DL
  URIC ACID: 0.97 mg/dL
[3]
  ABSOLUTE BASOPHIL: 0 CELLS/uL
  ABSOLUTE EOSINOPHIL: 38 CELLS/uL
  ABSOLUTE LYMPHOCYTE: 9373.67 CELLS/uL
  ABSOLUTE MONOCYTE: 256.5 CELLS/uL
  ABSOLUTE SEGMENTED NEUTROPHIL: 1531.83 CELLS/uL
  BASOPHIL: 0%
  EOSINOPHIL: 0.33%
  ERYTHROCYTE COUNT: 5.4 x10E6/uL
  HEMATOCRIT: 33.48%
  HEMOGLOBIN: 13.42 G/DL
  LEUKOCYTE COUNT: 11.2 x10E3/uL
  LYMPHOCYTE: 84.5%
  MEAN CORPUSCULAR HEMOGLOBIN: 24.92 pg
  MEAN CORPUSCULAR HEMOGLOBIN CONCENTRATION: 40.07 G/DL
  MEAN CORPUSCULAR VOLUME: 62.18 fL
  MONOCYTE: 2.33%
  NEUTROPHIL: 12.83%
  NUCLEATED RED BLOOD CELLS: 0 /100WBC
  PLATELET COUNT: 1292.83 x10E3/uL
  ALANINE AMINOTRANSFERASE: 65.5 u/L
  ALBUMIN: 4.38 G/DL
  ALKALINE PHOSPHATASE: 202.33 u/L
  ASPARTATE AMINOTRANSFERASE: 86.17 u/L
  BLOOD UREA NITROGEN: 13 mg/dL
  CARBON DIOXIDE: 29.33 mmol/L
  CHLORIDE: 100.17 MEQ/L
  CHOLESTEROL: 67.17 mg/dL
  CREATINE PHOSPHOKINASE: 206 u/L
  CREATININE: 0.19 mg/dL
  GLUCOSE: 138.83 mg/dL
  LACTATE DEHYDROGENASE: 109 u/L
  LIPASE: 10 u/L
  PHOSPHORUS: 10.48 mg/dL
  POTASSIUM: 5.88 MEQ/L
  SODIUM: 144.13 MEQ/L
  TOTAL BILIRUBIN: 0.18 mg/dL
  TOTAL PROTEIN: 5.83 G/DL
  URIC ACID: 0.88 mg/dL
